In patent EP2820422B1, “ABCG2 TRANSPORTER ASSAY” (priority 2012, dated 2013):
Blank lines part the entries; values can stand above or below the compound they belong to.

Columns and labels:
human ABCG2 protein [1] = molecular target: T1, human ABCG2 protein (Homo sapiens, UniProt Q9UNQ0); experiment: ABCG2-ATPase activity measurement (vanadate sensitive) in cholesterol loaded, isolated Sf9 membrane vesicles; assay type: biochemical; design: removing the full-length human ABCG2 cDNA (G482 variant) from pcDNA3.1/ABCG2 with SacI digestion; made in house; host or cells: Sf9 insect cells (baculovirus)
T1 sequence (Q9UNQ0 1-655): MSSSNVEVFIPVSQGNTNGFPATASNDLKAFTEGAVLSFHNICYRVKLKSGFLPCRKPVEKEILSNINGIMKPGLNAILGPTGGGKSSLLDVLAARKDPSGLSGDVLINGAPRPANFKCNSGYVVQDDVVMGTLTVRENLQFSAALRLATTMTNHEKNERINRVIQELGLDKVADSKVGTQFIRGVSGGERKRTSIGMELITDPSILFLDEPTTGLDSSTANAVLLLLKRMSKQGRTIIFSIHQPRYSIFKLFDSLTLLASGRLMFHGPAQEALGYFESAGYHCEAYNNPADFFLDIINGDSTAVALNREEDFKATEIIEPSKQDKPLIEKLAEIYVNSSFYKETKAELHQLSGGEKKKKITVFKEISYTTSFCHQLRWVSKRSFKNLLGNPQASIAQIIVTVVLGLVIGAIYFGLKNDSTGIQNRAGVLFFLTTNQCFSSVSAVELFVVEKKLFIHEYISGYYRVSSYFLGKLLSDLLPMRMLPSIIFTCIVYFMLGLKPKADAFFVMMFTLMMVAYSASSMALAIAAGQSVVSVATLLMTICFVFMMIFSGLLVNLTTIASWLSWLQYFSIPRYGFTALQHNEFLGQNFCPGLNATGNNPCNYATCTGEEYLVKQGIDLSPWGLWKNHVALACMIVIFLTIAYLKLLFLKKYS
Experimental: Thus, for direct measurements with ABCG2 in Sf9 membrane vesicles the membrane is loaded with cholesterol. After homogenization the sample is incubated with 2.5 mg/ml cholesterol-cyclodextrin complex (Cyclolab, Budapest) for 20 minutes at +4°C then followed by centrifugation steps.
ABCG2-Sf9 membrane vesicles (10 ug total protein) or isolated ABCG2 (0.2 ug) and separately added liposomes or reconstituted ABCG2-proteoliposome (0.2 ug) was added to assay mixture (final volume 150 ul) and preincubated for 5 or 20 minutes at 37°C when isolated ABCG2 and liposomes are used.
Reaction is started by adding Mg-ATP pH 7.0 to the reaction mixture at 3 mM and stopped after 20 or 30 minutes (for purified ABCG2) by 5% SDS.
Self-degradation of ATP is checked in each measurement by ABCG2 free samples.
Assay mixture was adapted for different setup with different type of ABCG2 samples. Assay buffer was 40 mM TRIS-MOPS pH 7.0 with 0.5 mM EGTA, 50 mM […] and 2 mM DTT.
For 'ABCG2 in Sf9 membrane vesicle' setup 5 mM Na-azide, 1 mM ouabain, were given to inhibit Sf9 intrinsic ATPases. ABC specific ATPase was measured as vanadate sensitive ATPase after determining the vanadate (1.3 mM) insensitive background.
A concentration set of K2HPO4 (10-50 ug/sample) is used as standard.

human ABCG2 protein [2] = molecular target: T1, human ABCG2 protein; details: cited from earlier work

SMILES: COc1ccc2c3c([nH]c2c1)[C@H](C=C(C)C)N1C(=O)[C@@H]2CCCN2C(=O)[C@@H]1C3 [FTC]
- Inhibition (+ modifying agent 0.1% CHAPS) (human ABCG2 protein [1]): 70%
- Inhibition (Control) (human ABCG2 protein [1]): 70%
- inhibition of basal vanadate-sensitive ATPase activity of ABCG2 (human ABCG2 protein [2]): fully inhibited

SMILES: C[C@H](CCC(=O)NCCC[N+](C)(C)CCCS(=O)(=O)[O-])[C@H]1CC[C@H]2[C@@H]3[C@H](O)C[C@@H]4C[C@H](O)CC[C@]4(C)[C@H]3C[C@H](O)[C@]12C [CHAPS, 3-[(3-Cholamidopropyl)dimethylammonio]-1-propanesulfonate]
- effect of modifier agent on basal ABCG2-ATPase activity (human ABCG2 protein [1]; cholesterol loaded Sf9 membrane vesicles, concentrations below the CMC, drug stimulation (5 uM quercetin) not altered, Figures 3 and 4): sigificantly decreased

- effect on the ABCG2-ATPase activity (human ABCG2 protein [1]; isolated Sf9 cell membrane preparations, first an activation, then an inhibition, Figure 6): biphasic effect
SMILES: Cc1cn(-c2cc(NC(=O)c3ccc(C)c(Nc4nccc(-c5cccnc5)n4)c3)cc(C(F)(F)F)c2)cn1 [Nilotinib]
